Measurements as given in US20160051579A1, “NITRIC OXIDE TREATMENT OF BOVINE RESPIRATORY DISEASE COMPLEX AND OTHER RESPIRATORY CONDITIONS” (Bovicor Pharmatech, Inc., priority 2014, published 2016).
“Also recorded” adds a separate entry of the source.

Columns and labels:
BRDc = assay: Commercial feedlot trial NORS vs Micotil: BRDc incidence, relapse, mortality; format: in vivo, beef calves
From the text: Commingled, multi-sourced, mixed-breed beef calves were purchased from auction markets for these studies. […] Animals identified for the study were to be approximately 6 months old with an estimated initial mean body weight of between 400-600 lbs. All animals were transported via commercial cattle liners to the feedlot. […] After a 24-hour acclimatization period, the calves were screened, enrolled, randomized, processed, weighed, and temperature measured with blood samples taken by a veterinarian.
(§1) NORS was delivered with a spray device specifically designed for the study. […] Animals in the control cohort received an injection of Micotil® of 2 mL/100 lb.
Animals identified by the pen keepers as appearing to be sick were “pulled” and brought into a barn. The animal was then placed in a catch chute and assessed by a veterinarian, who was blinded to the study, and assigned a clinical score to each animal.
BRDc was diagnosed as positive based on temperature greater than 103.5° F. and a clinical pulmonary score of 3 or greater.
At day 150, all animals were assessed for average daily weight gain and recorded.
Animals that died during the first 35 days of the study, for any reason, were sent for pathology testing (done by a board certified, blinded, veterinary pathologist). The following sections were tested: Lungs (left anterior, left middle, left caudal, right anterior, right middle, right caudal), heart, nasal mucosa, pharynx, Retropharyngeal L.N. and trachea. Diagnosis for the cause of death was determined by the pathologist.
Deaths of animals from day 35 to 150 were recorded and the farm's pathologist identified the cause of death.
In order to evaluate the difference in BRDc positive rates between NORS and Micotil® treated animals, a non-inferiority analysis was conducted. Specifically, the null hypothesis that the BRDc positive rate in the Bovinex group (pB) is more than 7.5% higher than the rate in the Micotil® group (pM) was tested using a nonparametric bootstrap: • H0: pB−pM≧7.5% • vs. • H1: pB−pM<7.5%

[1] = Commercial feedlot trial NORS vs Micotil: weight gain; format: in vivo, beef calves
Description: as §1
During the follow-up period (day 35 to day 60), relapses requiring antibiotic intervention were recorded as part of the normal feedlot routine. At day 150, all animals were assessed for average daily weight gain and recorded.
In order to evaluate the effect of treatment on 35-day weight change, a linear mixed effects model was fit to the data. Specifically, the effect of treatment on weight change was evaluated while controlling for baseline weight (fixed effect) and pen (random effect). Confidence intervals are based on the linear mixed effects model and account for the possibility of correlation of animals grouped together within the same pen.

[2] = cited from earlier work
[3] = in vivo; cited from earlier work
[4] = tested on: Trichophyton mentagrophytes; assay: Antifungal efficacy of NORS, mycelial viability; format: cell-based; details: 0.14% sodium nitrite (pH 6) or citric acid at pH 3.7 alone, 30-minute exposure
Trichophyton rubrum = assay: Antifungal efficacy of NORS, mycelial viability; format: cell-based; details: 0.14% sodium nitrite (pH 6) or citric acid at pH 3.7 alone, 30-minute exposure

CC[C@H]1OC(=O)C[C@@H](O)[C@H](C)[C@@H](O[C@@H]2O[C@H](C)[C@@H](O)[C@H](N(C)C)[C@H]2O)[C@@H](CCN2C[C@H](C)C[C@H](C)C2)C[C@@H](C)C(=O)/C=C/C(C)=C/[C@@H]1CO[C@@H]1O[C@H](C)[C@@H](O)[C@@H](OC)[C@H]1OC [antibiotic, tilmicosin]
# of BRDc positive animals (BRDc; Pen B2): 1
% of BRDc positive animals (BRDc; Pen B2): 0.7%
# of BRDc positive animals (BRDc; Pen B6): 5
% of BRDc positive animals (BRDc; Pen B6): 3.7%
# of BRDc positive animals (BRDc; Pen C3): 3
% of BRDc positive animals (BRDc; Pen C3): 2.2%
# of BRDc positive animals (BRDc; Pen C7): 8
% of BRDc positive animals (BRDc; Pen C7): 6.2%
BRDc related deaths as diagnosed by the feedlot (BRDc; day 35-150): 3
animals that died (BRDc; day 35-150): 12
animals that died (BRDc; during the 35 days of the study): 8
animals pulled for suspected illness (BRDc; first 35 days): Thirty-three
number of relapses (BRDc; followed until day 150): 10
# of BRDc positive animals (BRDc; total of cohort, 35 days): 17
% of BRDc positive animals (BRDc; total of cohort, 35 days): 3.2%
average daily gain ([1]; 35 days): 2.0 lbs/day
average 35-day weight gain ([1]; baseline weight of 554 lbs): 70 lbs
average daily gain ([1]; day 150): 2.61 lbs
average gain ([1]; day 150): 392 lbs
additional weight gain relative to those treated with NORS ([1]; over 35 days): 5.5 lbs

[N]=O [NO, Nitric Oxide]
half-life in the body [2]: less than 6 s

CCCNC[C@]1(O)[C@H](C)O[C@@H](O[C@H]2[C@H](C)[C@@H](O[C@@H]3O[C@H](C)C[C@H](N(C)C)[C@H]3O)[C@](C)(O)C[C@@H](C)CN[C@H](C)[C@@H](O)[C@](C)(O)[C@@H](CC)OC(=O)[C@@H]2C)C[C@@]1(C)OC [tulathromycin]
time remaining in the pulmonary system [3]: ≤ 28 days

O=NO [sodium nitrite]
effect of single component on mycelial growth [4]: Minimal to no effect
effect of single component on mycelial growth ([4]; listed as nitrites): no significant effect
effect of single component on mycelial growth (Trichophyton rubrum): Minimal to no effect
effect of single component on mycelial growth (Trichophyton rubrum; listed as nitrites): no significant effect

O=C(O)CC(O)(CC(=O)O)C(=O)O [citric acid]
effect of single component on mycelial growth [4]: Minimal to no effect; also recorded: no significant effect
effect of single component on mycelial growth (Trichophyton rubrum): Minimal to no effect; also recorded: no significant effect
